Patent US20100317624A1 (ASTRAZENECA AB, priority 2009, published 2010)

The molecules below were run against S. aureus GyrB ATPase (Staphylococcus aureus, UniProt P0A0K8) (assay: S. aureus GyrB ATPase inhibition (ammonium molybdate/malachite green phosphate detection)). Settings: compound at 1 μM; inhibition of S. aureus GyrB ATPase; read-out: Percent Inhibition (1 μM).
S. aureus GyrB ATPase, sequence (P0AES4 whole entry): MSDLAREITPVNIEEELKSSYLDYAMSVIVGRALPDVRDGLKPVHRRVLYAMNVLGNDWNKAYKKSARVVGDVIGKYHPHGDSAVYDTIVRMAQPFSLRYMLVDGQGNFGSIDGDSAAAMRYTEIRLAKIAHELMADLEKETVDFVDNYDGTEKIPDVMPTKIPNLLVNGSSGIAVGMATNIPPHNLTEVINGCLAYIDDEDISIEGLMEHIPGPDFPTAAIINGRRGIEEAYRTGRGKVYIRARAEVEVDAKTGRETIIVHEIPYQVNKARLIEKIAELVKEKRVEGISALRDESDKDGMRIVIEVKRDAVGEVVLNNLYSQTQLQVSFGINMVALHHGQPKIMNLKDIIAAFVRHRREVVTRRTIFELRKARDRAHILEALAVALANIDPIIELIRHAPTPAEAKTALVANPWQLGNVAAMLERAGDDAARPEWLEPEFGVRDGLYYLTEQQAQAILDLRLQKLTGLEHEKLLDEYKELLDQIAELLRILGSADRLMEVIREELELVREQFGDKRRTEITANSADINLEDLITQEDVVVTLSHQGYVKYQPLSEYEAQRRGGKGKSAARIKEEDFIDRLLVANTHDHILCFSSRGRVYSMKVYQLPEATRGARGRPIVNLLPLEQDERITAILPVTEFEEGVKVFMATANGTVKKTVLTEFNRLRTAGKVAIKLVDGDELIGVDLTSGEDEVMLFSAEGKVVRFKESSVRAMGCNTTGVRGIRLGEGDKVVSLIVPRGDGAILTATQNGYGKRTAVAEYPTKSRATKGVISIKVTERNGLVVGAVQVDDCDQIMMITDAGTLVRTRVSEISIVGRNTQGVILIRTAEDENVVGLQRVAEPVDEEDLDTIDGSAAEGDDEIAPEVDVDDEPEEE
S. aureus GyrB ATPase, sequence (P0A0K8 whole entry): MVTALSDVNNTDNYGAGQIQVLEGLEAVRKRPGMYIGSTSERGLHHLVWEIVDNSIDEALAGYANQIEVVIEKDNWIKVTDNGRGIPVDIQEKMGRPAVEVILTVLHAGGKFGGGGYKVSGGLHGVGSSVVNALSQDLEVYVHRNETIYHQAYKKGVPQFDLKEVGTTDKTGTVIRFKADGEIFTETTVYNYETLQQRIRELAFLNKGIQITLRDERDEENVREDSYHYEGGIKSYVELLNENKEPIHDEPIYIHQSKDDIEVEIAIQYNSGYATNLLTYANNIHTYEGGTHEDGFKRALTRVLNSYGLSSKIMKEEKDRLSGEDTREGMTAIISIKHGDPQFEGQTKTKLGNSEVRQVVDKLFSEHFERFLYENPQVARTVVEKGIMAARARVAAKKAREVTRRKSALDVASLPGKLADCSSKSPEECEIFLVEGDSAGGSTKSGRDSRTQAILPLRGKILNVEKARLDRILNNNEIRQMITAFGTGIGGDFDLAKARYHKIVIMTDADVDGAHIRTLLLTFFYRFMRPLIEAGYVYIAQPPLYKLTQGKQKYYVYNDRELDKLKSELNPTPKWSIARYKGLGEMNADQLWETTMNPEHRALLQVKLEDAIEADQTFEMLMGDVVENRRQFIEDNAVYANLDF
Type: biochemical
Experimental: S. aureus GyrB ATPase Inhibition Activity: Compounds may be tested for inhibition of S. aureus GyrB ATPase activity using an ammonium molybdate/malachite green-based phosphate detection assay (Lanzetta, P. A., L. J. Alvarez, P. S. Reinach, and O. A. Candia, 1979, 100: 95-97). Assays can be performed in multiwell plates in 30 μl reactions containing: 50 mM Hepes buffer pH 7.5, 75 mM ammonium acetate, 8.0 mM magnesium chloride, 0.5 mM ethylenediaminetetraacetic acid, 5% glycerol, 1.0 mM 1,4-Dithio-DL-threitol, 200 nM bovine serum albumin, 1.0 μg/ml sheared salmon sperm DNA, 250 pM E. coli GyrA, 250 pM S. aureus GyrB, 250 μM ATP, and compound in dimethylsulfoxide. Reactions can be quenched with 30 μl of ammonium molybdate/malachite green detection reagent containing 1.2 mM malachite green hydrochloride, 8.5 mM ammonium molybdate tetrahydrate, and 1 M hydrochloric acid. Plates can be read in an absorbance plate reader at 650 nm and percent inhibition values can be calculated using dimethylsulfoxide (2%)-containing reactions as 0% inhibition and EDTA-containing ([…]) reactions as 100% inhibition controls. An IC50 measurement of compound potency for each compound can be determined from reactions performed in the presence of 10 different compound concentrations.
Molecule `CCNC(=O)Nc1cc(-c2nc(C(F)(F)F)cs2)c(-c2ccc3c(c2)c(=O)c(C(=O)OCCOC(=O)C(C)C)cn3C(COC)COC)cn1` [Example 43, 2-(isobutyryloxy)ethyl 1-(1,3-dimethoxypropan-2-yl)-6-(6-(3-ethylureido)-4-(4-(trifluoromethyl)thiazol-2-yl)pyridin-3-yl)-4-oxo-1,4-dihydroquinoline-3-carboxylate] has an inhibition at 1 µM of 103%.
`CCNC(=O)Nc1cc(-c2nc(C(F)(F)F)cs2)c(-c2ccc3c(c2)c(=O)c(C(=O)OCCOC(=O)C(C)(C)C)cn3C(COC)COC)cn1` [Example 44, 2-(pivaloyloxy)ethyl 1-(1,3-dimethoxypropan-2-yl)-6-(6-(3-ethylureido)-4-(4-(trifluoromethyl)thiazol-2-yl)pyridin-3-yl)-4-oxo-1,4-dihydroquinoline-3-carboxylate] showed an inhibition at 1 µM of 98%.
For `CCNC(=O)Nc1cc(-c2nc(-c3ccccc3)cs2)c(-c2cc3c(=O)c(C(=O)O)cn(C[C@H]4CCCN4CC)c3cc2OCCN(CC)CC)cn1` [Example 45, (R)-7-(2-(diethylamino)ethoxy)-1-((1-ethylpyrrolidin-2-yl)methyl)-6-(6-(3-ethylureido)-4-(4-phenylthiazol-2-yl)pyridin-3-yl)-4-oxo-1,4-dihydroquinoline-3-carboxylic acid], the inhibition at 1 µM was 102%.
In the case of `CCNC(=O)Nc1cc(-c2nc(-c3ccccc3)cs2)c(-c2cc3c(=O)c(C(=O)O)cn(CCN(C)C)c3cc2OCCN(CC)CC)cn1` [Example 46, 7-(2-(diethylamino)ethoxy)-1-(2-(dimethylamino)ethyl)-6-(6-(3-ethylureido)-4-(4-phenylthiazol-2-yl)pyridin-3-yl)-4-oxo-1,4-dihydroquinoline-3-carboxylic acid], the inhibition at 1 µM is reported as 108%.
With `CCNC(=O)Nc1cc(-c2nc(C(F)(F)F)cs2)c(-c2cc3c(=O)c(C(=O)O)cn(CC)c3cc2OCCN(C)C)cn1` [Example 47, 7-(2-(dimethylamino)ethoxy)-1-ethyl-6-(6-(3-ethylureido)-4-(4-(trifluoromethyl)thiazol-2-yl)pyridin-3-yl)-4-oxo-1,4-dihydroquinoline-3-carboxylic acid] the inhibition at 1 µM was 110%.
For `CCNC(=O)Nc1cc(-c2nc(-c3ccccc3)cs2)c(-c2cc3c(=O)c(C(=O)O)cn(CCN(C)C)c3cc2OCCN2CCOCC2)cn1` [Example 48, 1-(2-(dimethylamino)ethyl)-6-(6-(3-ethylureido)-4-(4-phenylthiazol-2-yl)pyridin-3-yl)-7-(2-morpholinoethoxy)-4-oxo-1,4-dihydroquinoline-3-carboxylic acid], the inhibition at 1 µM was 99%.
`CCNC(=O)Nc1cc(-c2nc(-c3ccccc3)cs2)c(-c2cc3c(=O)c(C(=O)O)cn(C[C@@H]4CCCN4CC)c3cc2OCCN(CC)CC)cn1` [Example 49, (S)-7-(2-(diethylamino)ethoxy)-1-((1-ethylpyrrolidin-2-yl)methyl)-6-(6-(3-ethylureido)-4-(4-phenylthiazol-2-yl)pyridin-3-yl)-4-oxo-1,4-dihydroquinoline-3-carboxylic acid] was tested, and the inhibition at 1 µM was 105%.
`CCNC(=O)Nc1cc(-c2nc(C(F)(F)F)cs2)c(-c2cc3c(=O)c(C(=O)O)cn(CCN4CCOCC4)c3cc2F)cn1` [Example 50, 6-(6-(3-ethylureido)-4-(4-(trifluoromethyl)thiazol-2-yl)pyridin-3-yl)-7-fluoro-1-(2-morpholinoethyl)-4-oxo-1,4-dihydroquinoline-3-carboxylic acid] showed an inhibition at 1 µM of 106%.
`CCNC(=O)Nc1cc(-c2nc(C(F)(F)F)cs2)c(-c2cc3c(=O)c(C(=O)O)cn(CC(C)N(C)C)c3cc2F)cn1` (centres unmarked) [Example 51, 1-(2-(dimethylamino)propyl)-6-(6-(3-ethylureido)-4-(4-(trifluoromethyl)thiazol-2-yl)pyridin-3-yl)-7-fluoro-4-oxo-1,4-dihydroquinoline-3-carboxylic acid] was tested, and the inhibition at 1 µM was 95%.
Molecule `CCNC(=O)Nc1cc(-c2nc(C(F)(F)F)cs2)c(-c2cc3c(=O)c(C(=O)O)cn([C@H](CO)CC(C)C)c3cc2F)cn1` [Example 52, (S)-6-(6-(3-ethylureido)-4-(4-(trifluoromethyl)thiazol-2-yl)pyridin-3-yl)-7-fluoro-1-(1-hydroxy-4-methylpentan-2-yl)-4-oxo-1,4-dihydroquinoline-3-carboxylic acid] has an inhibition at 1 µM of 103%.
For `CCNC(=O)Nc1cc(-c2nc([C@H](N)C(C)C)cs2)c(-c2ccc3c(c2)c(=O)c(C(=O)O)cn3[C@H](CO)C(C)(C)C)cn1` [Example 53, 6-(4-(4-((R)-1-amino-2-methylpropyl)thiazol-2-yl)-6-(3-ethylureido)pyridin-3-yl)-1-((S)-1-hydroxy-3,3-dimethylbutan-2-yl)-4-oxo-1,4-dihydroquinoline-3-carboxylic acid], the inhibition at 1 µM was 46%.
Molecule `CCNC(=O)Nc1cc(-c2nc(C(F)(F)F)cs2)c(-c2cc3c(=O)c(C(=O)O)cn(C4CC4)c3cc2Cl)cn1` [Example 54, 7-chloro-1-cyclopropyl-6-(6-(3-ethylureido)-4-(4-(trifluoromethyl)thiazol-2-yl)pyridin-3-yl)-4-oxo-1,4-dihydroquinoline-3-carboxylic acid] has an inhibition at 1 µM of 126%.
Work on `CCNC(=O)Nc1cc(-c2nc(C(F)(F)F)cs2)c(-c2cc3c(=O)c(C(=O)O)cn(CCN(C)C)c3cc2NCCN(C)C)cn1` [Example 55, 1-(2-(dimethylamino)ethyl)-7-(2-(dimethylamino)ethylamino)-6-(6-(3-ethylureido)-4-(4-(trifluoromethyl)thiazol-2-yl)pyridin-3-yl)-4-oxo-1,4-dihydroquinoline-3-carboxylic acid] yielded an inhibition at 1 µM of 100%.
In the case of `CCNC(=O)Nc1cc(-c2nc(C(F)(F)F)cs2)c(-c2ccc3c(c2)c(=O)c(C(=O)O)cn3CC(C)N2CCOCC2)cn1` (centres unmarked) [Example 56, 6-(6-(3-Ethylureido)-4-(4-(trifluoromethyl)thiazol-2-yl)pyridin-3-yl)-1-(2-morpholinopropyl)-4-oxo-1,4-dihydroquinoline-3-carboxylic acid], the inhibition at 1 µM is reported as 101%.
